Source: paper PMC9942557, “Bolaamphiphile Analogues of 12-bis-THA Cl2 Are Potent Antimicrobial Therapeutics with Distinct Mechanisms of Action against Bacterial, Mycobacterial, and Fungal Pathogens” (mSphere, 2022)
Read-outs that look alike come from different tables or passages of the source.

Experiments:
[1] = tested on: Klebsiella pneumoniae NCTC 13368; test: Broth microdilution MIC; format: cell-based
Klebsiella pneumoniae M6 = test: Broth microdilution MIC; format: cell-based
[2] = tested on: Acinetobacter baumannii AYE; test: Broth microdilution MIC; format: cell-based; conditions: Acinetobacter baumannii AYE
[3] = tested on: Acinetobacter baumannii ATCC 17978; test: Broth microdilution MIC; format: cell-based
[4] = tested on: Pseudomonas aeruginosa PAO1; test: Broth microdilution MIC; format: cell-based
[5] = tested on: Pseudomonas aeruginosa NCTC 13437; test: Broth microdilution MIC; format: cell-based
[6] = tested on: Escherichia coli NCTC 12923; test: Broth microdilution MIC; format: cell-based
[7] = tested on: EMR Staphylococcus aureus 15 NCTC 13616; test: Broth microdilution MIC; format: cell-based; conditions: EMR Staphylococcus aureus 15 NCTC 13616
[8] = tested on: EMR Staphylococcus aureus 16 NCTC 13277; test: Broth microdilution MIC; format: cell-based; conditions: EMR Staphylococcus aureus 16 NCTC 13277
[9] = tested on: VS Enterococcus faecalis NCTC 775; test: Broth microdilution MIC; format: cell-based
[10] = tested on: VR Enterococcus faecalis NCTC 12201; test: Broth microdilution MIC; format: cell-based; conditions: VR Enterococcus faecalis NCTC 12201
[11] = tested on: VR Enterococcus faecium NCTC 12204; test: Broth microdilution MIC; format: cell-based; conditions: VR Enterococcus faecium NCTC 12204
C. albicans 3179 = test: Broth microdilution MIC; format: cell-based, Candida albicans; conditions: C. albicans 3179
C. albicans 3281 = test: Broth microdilution MIC; format: cell-based, Candida albicans; conditions: C. albicans 3281
C. auris temp probe = test: Broth microdilution MIC; format: cell-based, Candida auris; conditions: C. auris temp probe
C. glabrata 8018 = test: Broth microdilution MIC; format: cell-based; conditions: C. glabrata 8018
C. tropicalis 8760 = test: Broth microdilution MIC; format: cell-based; conditions: C. tropicalis 8760
C. krusei 3876 = test: Broth microdilution MIC; format: cell-based
C. parapsilosis 3209 = test: Broth microdilution MIC; format: cell-based
C. parapsilosis = test: Broth microdilution MIC; format: cell-based
M. smegmatis mc^2 155 = test: Broth microdilution MIC (Middlebrook 7H9); format: cell-based, Mycobacterium smegmatis
M. tuberculosis Bleupan [12] = test: microbe, parasite or virus in culture; format: cell-based, Mycobacterium tuberculosis
HEK293 = test: In vitro toxicity for cell line; format: cell-based, human; conditions: HEK293; average ± standard error from 3 independent repeats
Description: (§1) TABLE 2 Toxicity of bolaamphiphiles for two cell lines^a | column: Toxicity (EC50 [μg/ml]) of: / 12-bis-THA Cl2; Toxicity (EC50 [μg/ml]) of: / Dequalinium; Toxicity (EC50 [μg/ml]) of: / Quino-bola; Toxicity (EC50 [μg/ml]) of: / Penta-bola; Toxicity (EC50 [μg/ml]) of: / Hepta-bola; Toxicity (EC50 [μg/ml]) of: / Octa-bola; Toxicity (EC50 [μg/ml]) of: / Octa-C10; Toxicity (EC50 [μg/ml]) of: / Octa-C8; Toxicity (EC50 [μg/ml]) of: / Octa-C6

HeLa = test: In vitro toxicity for cell line; format: cell-based, human; conditions: average ± standard error from 3 independent repeats
Description: as §1

P. aeruginosa RP73 = test: Checkerboard synergy assay; format: cell-based, Pseudomonas aeruginosa
M. tuberculosis Bleupan [13] = format: in vivo, Galleria mellonella
Dynamic light scattering = format: physicochemical
Method: Stock solutions of bolalipids were prepared by dispersing the powder in ultrapure water, then stirring vigorously by vortexing, and sonicating in a 40°C bath sonicator for 20 min. The concentration of each stock solution corresponds to the highest solubility achieved in water for each bolalipid, using the method described above. DLS experiments were performed on a Malvern Zetasizer Nano (Malvern Instruments, Worcestershire, UK) in back-scattering mode at 20°C. There were three independent measurements of each sample and 12 runs for each measurement, with 10 s taken for each run. The attenuator index and measurement position were automatically adjusted. Fifty microliters of each sample was transferred into polystyrene semi-microcuvettes for determination of UV and visible wavelengths (Sarstedt).

K. pneumoniae NCTC 13368 = test: Fixed-concentration (0.25× MIC bolalipid) synergy broth microdilution; format: cell-based, Klebsiella pneumoniae; conditions: Klebsiella pneumoniae, NCTC13368, K. pneumoniae NCTC 13368, read-out: MIC of aminoglycoside
K. pneumoniae M6 = test: as above; format: cell-based; conditions: Klebsiella pneumoniae
A. baumannii AYE = test: as above; format: cell-based; conditions: Acinetobacter baumannii
A. baumannii ATCC 17978 = test: as above; format: cell-based; conditions: Acinetobacter baumannii, ATCC17978, A. baumannii ATCC 17978, read-out: MIC of aminoglycoside
P. aeruginosa PAO1 [14] = test: as above; format: cell-based, Pseudomonas aeruginosa; conditions: Pseudomonas aeruginosa, PAO1, P. aeruginosa PAO1, read-out: MIC of aminoglycoside
P. aeruginosa NCTC 13437 [15] = test: as above; format: cell-based, Pseudomonas aeruginosa; conditions: Pseudomonas aeruginosa, NCTC13437, P. aeruginosa NCTC 13437, read-out: MIC of aminoglycoside
E. coli NCTC 12923 = test: as above; format: cell-based; conditions: Escherichia coli, NCTC12923, E. coli NCTC 12923, read-out: MIC of aminoglycoside
P. aeruginosa PAO1 [16] = test: Checkerboard synergy assay; format: cell-based, Pseudomonas aeruginosa
P. aeruginosa NCTC 13437 [17] = test: Checkerboard synergy assay; format: cell-based, Pseudomonas aeruginosa
[18] = tested on: Pseudomonas aeruginosa RP73; test: Intrahemocoelic G. mellonella infection model; format: in vivo, Galleria mellonella; conditions: 96 h
[19] = tested on: Pseudomonas aeruginosa RP73; test: In vitro pharmacodynamic (PD) assay; conditions: P. aeruginosa RP73; combination 2:1 (wt/wt)
Method: In vitro PD assays were performed with Pseudomonas aeruginosa RP73 cultured in Roswell Park Memorial Institute 1640 medium (RPMI) supplemented with 5% Mueller-Hinton broth (MHB) ([35]). Bacteria were cultured overnight in 10 mL of RPMI–5% MHB at 37°C and diluted just prior to plate inoculation to an OD600 of 0.002. Stock solutions of colistin or tobramycin were prepared in sterile MilliQ water at a concentration of 200× MIC. Octa-bola was prepared in methanol at 2,000× MIC and diluted in water to 200× MIC. A dilution series was made in the top row of a polypropylene 96-well plate from 200× MIC to 0.2× MIC in a volume of 100 μL, to which 100 μL of the bacterial suspension was added to have a total of 1 × 10^6 log-phase CFU in 200 μL. The first time zero sample was taken <30 s after addition of bacteria to the plate, with further samples taken at appropriate intervals thereafter. […] Fifteen microliters was removed from each well, diluted 1:1,000 in phosphate-buffered saline, and plated onto RPMI–5% MH agar plates. The plates were incubated at 37°C overnight for CFU counting.
CFU data were log10 transformed, and the bacterial net growth rate was determined from the increase or decrease in CFU during the time of exposure to the antibiotics as the coefficient of a linear regression of log10 CFU as a function of time. The intercept of the regression was fixed by forcing the regression lines through the first CFU measurement (0 min) at a given antimicrobial concentration. The pharmacodynamic function according to Regoes et al. ([36]) describes the relationship between bacterial net growth rate (ψ) and the concentration of an antimicrobial (a): ψmax − ([ψmax − ψmin][a/zMIC])^κ/([a/zMIC]^κ − [ψmin/ψmax]). Fitting this function to the net bacterial growth rates in OriginPro 2020 (OriginLab Corporation, Northampton, MA) generates the parameters ψmin and ψmax (minimum and maximum growth rates, respectively), zMIC (the pharmacodynamic MIC), and κ (a measure of the cooperativity). […]

[20] = in the presence of 0.25× MIC Octa-Bola
[21] = in the presence of 0.25× MIC Octa-C6
[22] = in the presence of 0.25× MIC Octa-C10
[23] = No bola, read-out: MIC of aminoglycoside
[24] = in the presence of 0.25× MIC Octa-Bola, read-out: MIC of aminoglycoside
[25] = in the presence of 0.25× MIC Octa-C6, read-out: MIC of aminoglycoside
[26] = in the presence of 0.25× MIC Octa-C10, read-out: MIC of aminoglycoside

In the case of `Nc1c2c([n+](CCCCCC[n+]3c4c(c(N)c5ccccc53)CCCCCC4)c3ccccc13)CCCCCC2` [Octa-C6], the MIC [1] is reported as >32 µg/mL, the MIC (Klebsiella pneumoniae M6) is reported as >32 µg/mL and the MIC [2] is reported as >32 µg/mL. For the same compound, the MIC [3] was >32 µg/mL, the MIC [4] was >32 µg/mL and the MIC [5] was >32 µg/mL. For the same compound, the MIC [6] was >32 µg/mL, the MIC [7] was 16 µg/mL and the MIC [8] was 16 µg/mL. The MIC [9] was 32 µg/mL, the MIC [10] was 16 µg/mL and the MIC [11] was 16 µg/mL. For the same compound, the MIC (C. albicans 3179) was 8 µg/mL, the MIC (C. albicans 3281) was 8 µg/mL and the MIC (C. auris temp probe) was >8 µg/mL. The MIC (C. glabrata 8018) was >8 µg/mL, the MIC (C. tropicalis 8760) was 8 µg/mL and the MIC (C. krusei 3876) was >8 µg/mL. For the same compound, the MIC (C. parapsilosis 3209) was >8 µg/mL, the MIC (C. parapsilosis) was >8 µg/mL and the MIC (M. smegmatis mc^2 155) was 1.66 µg/mL. For the same compound, the MIC (M. tuberculosis Bleupan [12]) was 0.46 µg/mL, the “Toxicity (EC50)” value (HEK293) was 40.0 ± 15.6 µg/mL and the “Toxicity (EC50)” value (HeLa) was 64.3 ± 3.6 µg/mL. The “MIC alone Bolalipid” value (P. aeruginosa RP73) was 64 µg/mL, the protection (M. tuberculosis Bleupan [13]; all doses tested) was “did not provide protection” and the survival (M. tuberculosis Bleupan [13]; three lower doses (0.01, 0.1, and 1 mg/kg)) was “survival was significantly worse”. The “nanoparticle formation (DLS)” value (Dynamic light scattering; any conditions) was “Under no conditions did Octa-C6 give evidence of nanoparticle formation” and the derived count rate (Dynamic light scattering; concentrations up to 1.65 mM) was ≤ 26.3 kcps.

`NC[C@H]1O[C@H](O[C@H]2[C@H](O)[C@@H](O[C@H]3O[C@H](CO)[C@@H](O)[C@H](N)[C@H]3O)[C@H](N)C[C@@H]2N)[C@H](N)C[C@@H]1O` [Tobramycin] showed an MIC (K. pneumoniae NCTC 13368; No bola) of 8 µg/mL, an MIC (K. pneumoniae NCTC 13368; [20]) of 4 µg/mL and an MIC (K. pneumoniae NCTC 13368; [21]) of 16 µg/mL. For the same compound, the MIC (K. pneumoniae NCTC 13368; [22]) was 8 µg/mL, the MIC (K. pneumoniae M6; [23]) was 1 µg/mL and the MIC (K. pneumoniae M6; [24]) was 0.5 µg/mL. For the same compound, the MIC (K. pneumoniae M6; [25]) was 1 µg/mL, the MIC (K. pneumoniae M6; [26]) was 0.25 µg/mL and the MIC (A. baumannii AYE; [23]) was 64 µg/mL. For the same compound, the MIC (A. baumannii AYE; [24]) was 8 µg/mL, the MIC (A. baumannii AYE; [25]) was 16 µg/mL and the MIC (A. baumannii AYE; [26]) was 4 µg/mL. It also gave an MIC (A. baumannii ATCC 17978; No bola) of 2 µg/mL, an MIC (A. baumannii ATCC 17978; [20]) of 0.125 µg/mL and an MIC (A. baumannii ATCC 17978; [21]) of 0.5 µg/mL. It also gave an MIC (A. baumannii ATCC 17978; [22]) of 0.5 µg/mL, an MIC (P. aeruginosa PAO1 [14]; No bola) of 1 µg/mL and an MIC (P. aeruginosa PAO1 [14]; [20]) of 0.5 µg/mL. The MIC (P. aeruginosa PAO1 [14]; [21]) was 0.5 µg/mL, the MIC (P. aeruginosa PAO1 [14]; [22]) was 0.25 µg/mL and the MIC (P. aeruginosa NCTC 13437 [15]; No bola) was 64 µg/mL. The MIC (P. aeruginosa NCTC 13437 [15]; [20]) was 8 µg/mL, the MIC (P. aeruginosa NCTC 13437 [15]; [21]) was 8 µg/mL and the MIC (P. aeruginosa NCTC 13437 [15]; [22]) was 4 µg/mL. The MIC (E. coli NCTC 12923; No bola) was 2 µg/mL, the MIC (E. coli NCTC 12923; [20]) was 1 µg/mL and the MIC (E. coli NCTC 12923; [21]) was 2 µg/mL. For the same compound, the MIC (E. coli NCTC 12923; [22]) was 1 µg/mL, the “MIC alone Antibiotic” value (P. aeruginosa PAO1 [16]) was 0.5 µg/mL and the “MIC alone Antibiotic” value (P. aeruginosa RP73) was 2 µg/mL. For the same compound, the “MIC alone Antibiotic” value (P. aeruginosa NCTC 13437 [17]) was 64 µg/mL, the larvae rescued ([18]; 5 mg/kg) was 37.5% and the larvae rescued ([18]; 50 mg/kg, 1 × 10^2 CFU per larva) was 97.5%. The “bactericidal activity (minimum growth rate, ψmin)” value [19] was “weakly bactericidal”.
